Measurements: patent US11279714B2, “Anti-infective compounds” (priority 2014, dated 2022)
Values after ≈ are worked out from the molar mass of the structure shown.

What was measured:
[1] = system: Raw 264.7 cells infected with H37Rv-GFP; experiment: microbe, parasite or virus in culture; type: cell-based, M. tuberculosis; conditions: for MIC50: Mycobacterium tuberculosis, H37RV, 120 h, read-out: QIM (MIC50)
[2] = system: M. tuberculosis H37Rv expressing the green fluorescent protein (H37Rv-GFP); experiment: microbe, parasite or virus in culture; type: cell-based; conditions: Mycobacterium tuberculosis, H37RV, 120 h; read-out: QUM (MIC50)

Row | SMILES | MIC50 [1] | MIC50 [2] | QIM (MIC50, uM) [1]
1 | COc1ccc(NC(=O)c2cc3sc(N4CCCCC4)nc3s2)c(OC)c1 [Compound 286] | > 20 µM | – | –
2 | CN(C)C(=O)CC1CCN(c2nc3sc(C(=O)Nc4ccc(F)cc4)cc3s2)C1 (stereo not shown) [Compound 332] | < 1 µM | < 1 µM | –
3 | CN(CCO)c1nc2sc(C(=O)Nc3ccc(-c4ccn(C)n4)cc3)cc2s1 [Compound 275] | < 1 µM | 1 to 20 µM (≈ 0.414 to 8.27 µg/mL) | –
4 | COC(=O)C1CCN(C(=O)c2cc3nc(N4CCCCC4)sc3s2)CC1 [Compound 24] | > 20 µM | 1 to 20 µM (≈ 0.394 to 7.87 µg/mL) | –
5 | Cc1nc2cc(NC(=O)c3cc4sc(N(C)CCOC(C)C)nc4s3)ccc2o1 [Compound 255] | > 20 µM | – | –
6 | CC(C)(C)CC(=O)NC1CCN(c2nc3sc(C(=O)Nc4ccc(-c5ccc(F)nc5)cc4)cc3s2)CC1 [Compound 348] | < 1 µM | > 20 µM | –
7 | Cc1nc2cc(NC(=O)c3cc4sc(N(C)CCN(C)C)nc4s3)ccc2o1 [Compound 253] | 1 to 20 µM (≈ 0.416 to 8.31 µg/mL) | – | –
8 | Cc1ccc(-c2ccc(NC(=O)c3cc4sc(N(C)C)nc4s3)cc2)cn1 [Compound 240] | < 1 µM | > 20 µM | –
9 | O=C(Nc1ccc(-c2ccc(F)nc2)cc1)c1cc2sc(NCC(O)C(F)(F)F)nc2s1 (stereo not shown) [Compound 341] | < 1 µM | 1 to 20 µM (≈ 0.482 to 9.65 µg/mL) | –
10 | Cc1nc2cc(NC(=O)c3cc4sc(N5CCC(C(=O)c6ccc(Cl)cc6)CC5)nc4s3)ccc2o1 [Compound 205] | > 20 µM | > 20 µM | –
11 | Cc1nc2cc(NC(=O)c3cc4sc(N5CCN(CCO)CC5)nc4s3)ccc2o1 [Compound 336] | < 1 µM | 1 to 20 µM (≈ 0.444 to 8.87 µg/mL) | –
12 | Cc1nc2cc(NC(=O)c3cc4sc(NCCC5CCOCC5)nc4s3)ccc2o1 [Compound 333] | < 1 µM | 1 to 20 µM (≈ 0.443 to 8.85 µg/mL) | –
13 | CN(C)C(=O)[C@H]1CCN(c2nc3sc(C(=O)Nc4ccc(-c5ccc(F)nc5)cc4)cc3s2)C1 [Compound 298] | < 1 µM | < 1 µM | –
14 | CNC(=O)C1CCN(c2nc3sc(C(=O)Nc4ccc5oc(C)nc5c4)cc3s2)CC1 [Compound 212] | < 1 µM | 1 to 20 µM (≈ 0.456 to 9.11 µg/mL) | –
15 | CN(C)C(=O)C1CCN(c2nc3sc(C(=O)Nc4ccc(-c5ccc(F)cc5)cn4)cc3s2)CC1.CS(=O)(=O)O [Compound 283] | – | – | +++ (+++ indicates <1 uM)
16 | O=C(Nc1ccc(-c2ccc(F)nc2)cc1)c1cc2sc(N3CCN(CCO)CC3)nc2s1 [Compound 337] | < 1 µM | < 1 µM | –
17 | CN(C)C(=O)C1CCN(c2nc3sc(C(=O)Nc4ccc(CN5CCOCC5)cc4)cc3s2)CC1 [Compound 353] | – | 1 to 20 µM (≈ 0.514 to 10.3 µg/mL) | –

Row | SMILES | MIC50 [1] | MIC50 [2] | QIM (MIC50, uM) [1]
18 | CN(CCO)c1nc2sc(C(=O)Nc3ccc(-c4nn(C)cc4Cl)cc3)cc2s1 [Compound 279] | 1 to 20 µM (≈ 0.448 to 8.96 µg/mL) | – | –
19 | N#Cc1ccc(NC(=O)c2cc3sc(NCCN4CCOCC4)nc3s2)cc1 [Compound 303] | > 20 µM | – | –
20 | COCCCN(C)c1nc2sc(C(=O)Nc3ccc4oc(C)nc4c3)cc2s1 [Compound 254] | < 1 µM | – | –
21 | CN(C)C(=O)C1CCN(c2nc3sc(C(=O)Nc4ccc(-c5n[nH]cc5Cl)cc4)cc3s2)CC1 [Compound 280] | > 20 µM | – | –
22 | O=C(Nc1ccc(-c2ccc(F)cn2)cc1)c1cc2sc(NCCN3CCOCC3)nc2s1 [Compound 293] | < 1 µM | – | –
23 | CN(C)C(=O)C1CCN(c2nc3sc(C(=O)Nc4ccc(-c5ccc(F)cn5)cc4)cc3s2)CC1 [Compound 284] | – | < 1 µM | –
24 | COc1ccc(NC(=O)c2cc3sc(N4CCCCC4)nc3s2)c(OC)c1OC [Compound 300] | > 20 µM | – | –
25 | Cc1nc2cc(NC(=O)c3cc4sc(N(C)CCN5CCC5)nc4s3)ccc2o1 [Compound 257] | > 20 µM | – | –
26 | O=C(Nc1ccc(F)cc1)c1cc2sc(N3CCN4CCCC4C3)nc2s1 (stereo not shown) [Compound 322] | – | 1 to 20 µM (≈ 0.403 to 8.05 µg/mL) | –
27 | CN(C)C(=O)C1CCN(c2nc3sc(C(=O)Nc4ccc(-c5ccc(F)cc5)nc4)cc3s2)CC1.Cl [Compound 259] | – | – | +++ (+++ indicates <1 uM)
28 | CN(C)C(=O)C1CCN(CCNc2nc3sc(C(=O)Nc4ccc(-c5ccc(F)cn5)cc4)cc3s2)CC1 [Compound 355] | – | 1 to 20 µM (≈ 0.553 to 11.1 µg/mL) | –
29 | Cc1nc2cc(NC(=O)c3cc4sc(N(C)CCC(=O)N(C)C)nc4s3)ccc2o1 [Compound 264] | 1 to 20 µM (≈ 0.444 to 8.87 µg/mL) | – | –
30 | Cc1nc2cc(NC(=O)c3cc4sc(NC5CCN(Cc6ccc(F)cc6)CC5)nc4s3)ccc2o1 [Compound 357] | – | 1 to 20 µM (≈ 0.522 to 10.4 µg/mL) | –
31 | COc1ccc(NC(=O)c2cc3sc(N4CCCCC4)nc3s2)cc1OC [Compound 285] | < 1 µM | – | –
32 | CN1CCCC(Nc2nc3sc(C(=O)Nc4ccc(-c5ccc(F)nc5)cc4)cc3s2)C1 (stereo not shown) [Compound 354] | – | 1 to 20 µM (≈ 0.468 to 9.35 µg/mL) | –
33 | CN(C)C(=O)C1CCN(c2nc3sc(C(=O)Nc4ccc(N5CCOCC5)cc4)cc3s2)CC1 [Compound 352] | – | < 1 µM | –
34 | Cc1nc2cc(NC(=O)c3cc4sc(N(C)CCOc5ccccc5)nc4s3)ccc2o1 [Compound 256] | < 1 µM | – | –
